Results: patent US20250144050A1, “AMINOTHIOL-CONJUGATES, COMPOSITIONS, AND METHODS OF USE THEREOF” (THE BURLINGTON HC RESEARCH GROUP, INC., priority 2021, published 2025)

How the values were obtained:
[1] = test system: NCI-H460 NSCLC cells; type: cell-based
Method: (§2) Trypan Blue exclusion was applied as a complementary confirmation probe for cell death.
(§3) Statistical comparisons of differences in individual dose-response metrics between individual/paired drug treatments and various cell lines were conducted using the Student's t-test, with P-values <0.05 considered significant.
(§4) Relative cell growth inhibition values for differing levels each drug alone and in combination were input into SynergyFinder to generated dose-response curves for each drug alone, to produce a dose-response matrix, to visualize the distribution of areas of differing degrees of synergism in a 2-dimension heatmap and 3-dimension volcano plot, and to calculate average and maximum synergy scores in selected human cancer cell lines. […] Synergy scores <10 means that the interaction between two drugs was likely to be antagonistic; scores from −10 to 10 means the interaction between two drugs was likely to be additive; and scores >10 means the interaction between two drugs was likely to be synergistic.

[2] = test system: HMESO-1 malignant mesothelioma cells; type: cell-based
Method: as §2, §3, §4

[3] = test system: PPM-Mill malignant mesothelioma cells; type: cell-based
Method: as §2, §3, §4

[4] = test system: TOV21G ovarian cancer cells; type: cell-based
Method: as §2, §3, §4

[5] = test system: HPM3 cells; test: Dose-response metrics in immortalized, non-tumorigenic cells; type: cell-based
Method: (§1) To determine potential cytostatic or cytocidal effects of BRG prodrugs in immortalized, non-tumorigenic cells, Vero, HEK-293t, LP9, and HPM3 cells were exposed to 4SP65 while only Vero cells also were treated with 1LP65. […] Comparisons across other dose-response metrics could not be made because such levels of effects were not induced in NHMECs exposed to 4SP65. […] Since cytostatic and cytolytic effects at the TGI and LC50/99 levels were induced in Vero cells exposed to 1LP65 but not in NHMECs, there is a significant difference in the effects of 1LP65 in Vero cells compared to NHMECs, but p values based upon t-test evaluations cannot be defined due to lack of numerical data.

[6] = test system: HEK-293t cells; type: cell-based
Method: as §1

[7] = test system: LP9 cells; type: cell-based
Method: as §1

[8] = test system: H1437 NSCLC cells; test: Alamar Blue (resazurin) cellular reducing capacity; type: cell-based, human; details: until cell numbers reduced to approximately 50% of controls
Description: The aminothiol-conjugates of the present disclosure (e.g., 4SP65 and 1LP65) are disulfides that require reduction by glutathione or thioredoxin for the two constituent molecules (WR1065 and PEG-SH scaffold) to be released. […] After an aminothiol-conjugate of the present disclosure (e.g., 4SP65 and 1LP65) enters the cytoplasm, either glutathione or thioredoxin reduces the BRG disulfide bond (Rxn #1) to yield reduced WR1065 and PEG-SH scaffold. In normal cells with a reducing cytosolic redox balance, evidence of formation of free radical intermediates during this reaction has not been reported, but formation of […] has been reported (Nagy, P., “Kinetics and Mechanisms of Thiol-Disulfide Exchange Covering Direct Substitution and Thiol Oxidation-Mediated Pathways,” Antioxid Redox Signal 18 (13): 1623-1641 (2013), which is hereby incorporated by reference in its entirety). Conversely, in cancer cells where the cellular environment is shifted towards oxidizing conditions, there is evidence that reactive species such as thiyl free radicals can be formed (Nagy, P., “Kinetics and Mechanisms of Thiol-Disulfide Exchange Covering Direct Substitution and Thiol Oxidation-Mediated Pathways,” Antioxid. Redox Signal 18 (13): 1623-1641 (2013), which is hereby incorporated by reference in its entirety), which can have adverse effects in neoplastic cells. […]

[9] = test system: H1975 cells
Method: as §2, §3, §4

[10] = test system: PC3 cells; test: CyQUANT cell viability assay, 48-hour exposure; type: cell-based; details: Homo sapiens, PC-3
Method: After drug treatments, fluorescence readings from 96-well plates were obtained using the CyQUANT dye and compared to standard curves for each cell line to determine cell viability. […] Trypan blue exclusion was used to estimate cell numbers in a few pilot experiments and was thereafter applied to confirm cell death.
A series of experiments was conducted to assess the relative efficacy of 4SP65, 1LP65, and amifostine as single agents in the same human cancer cell lines. First, the effectiveness of 4SP65 was tested against 15 cancer cell lines derived from seven tissues. […]
Trans. […] Using cell numbers based on fluorescence measurements and standard curves [time zero, (Tz), control growth, (C), and test growth in the presence of drug at five or more concentration levels (Ti)], the percentage growth was calculated at each drug concentration level. The percentage of growth inhibition was calculated as follows:
The LC50/99 was calculated using Equation 2=−50 and Eq. 2=−99, respectively. […] For NHMECs, the relationships between drug exposure levels and fluorescence units were used to define dose-response metrics. The selectivity index (SI) values for individual drug treatments were calculated as IC50 levels in NHMECs divided by the IC50 values in cancer cell lines.

[11] = Dose-response metrics in immortalized, non-tumorigenic cells; type: cell-based; details: African green monkey, Vero cells (immortalized, non-tumorigenic); read-out: LC50 (the source's name)
Method: as §1

[12] = NCI-H460, each drug alone, 48 h
[13] = PPM-Mill, each drug alone, 48 h

**Q.** For 4-star PEG-S-S-WR1065 [4SP65], which CC50 [1] is on record?
**A.** 17.6 ± 0.5 µM

**Q.** What about the “Fold increase in efficacy at GI50” value ([1]; NCI-H460, drug alone vs in 4SP65-cisplatin combination) of the same molecule?
**A.** 36 fold

**Q.** What about the GI50 [1, 12] of the same molecule?
**A.** 12.3 ± 1.1 µM

**Q.** And the IC50 [1, 12]?
**A.** 13.3 ± 1 µM

**Q.** What about the LC99 [1, 12] of the same molecule?
**A.** 18.2 ± 0.4 µM

**Q.** What about the TGI [1, 12] of the same molecule?
**A.** 16.9 ± 0.6 µM

**Q.** And the CC50 [2]?
**A.** 7 ± 0.1 µM

**Q.** And the GI50 ([2]; HMESO-1, each drug alone, 48 h)?
**A.** 2 ± 0.3 µM

**Q.** And the IC50 ([2]; HMESO-1, each drug alone, 48 h)?
**A.** 4.7 ± 0.2 µM

**Q.** What about the LC99 ([2]; HMESO-1, each drug alone, 48 h) of the same molecule?
**A.** 12.4 ± 0.1 µM

**Q.** What about the TGI ([2]; HMESO-1, each drug alone, 48 h) of the same molecule?
**A.** 4.3 ± 0.2 µM

**Q.** What about the CC50 [3] of the same molecule?
**A.** 16.2 ± 3.2 µM

**Q.** What about the GI50 [3, 13] of the same molecule?
**A.** 8.4 ± 1.5 µM

**Q.** What about the IC50 [3, 13] of the same molecule?
**A.** 10 ± 1.9 µM

**Q.** And the LC99 [3, 13]?
**A.** 17.6 ± 3.5 µM

**Q.** What about the TGI [3, 13] of the same molecule?
**A.** 14.1 ± 3.3 µM

**Q.** And the CC50 [4]?
**A.** 2.7 ± 0.1 µM

**Q.** What about the “LC99, amount of each drug in combination” value ([4]; TOV21G, 4SP65-cisplatin combined, 48 h) of the same molecule?
**A.** 0.95 µM

**Q.** And the GI50 ([4]; TOV21G, each drug alone, 48 h)?
**A.** 0.93 ± 0.37 µM

**Q.** What about the IC50 ([4]; TOV21G, each drug alone, 48 h) of the same molecule?
**A.** 1.2 ± 0.3 µM

**Q.** What about the LC99 ([4]; TOV21G, each drug alone, 48 h) of the same molecule?
**A.** 3.0 µM

**Q.** And the TGI ([4]; TOV21G, each drug alone, 48 h)?
**A.** 2.0 ± 0.4 µM

**Q.** What about the GI50 [5] of the same molecule?
**A.** ~10 µM

**Q.** What about the CC50 [6] of the same molecule?
**A.** 60.6 µM

**Q.** What about the GI50 ([6]; HEK-293t) of the same molecule?
**A.** 15.8 µM

**Q.** What about the LC99 ([6]; HEK-293t) of the same molecule?
**A.** 62.4 µM

**Q.** And the TGI ([6]; HEK-293t)?
**A.** 58.8 µM

**Q.** And the CC50 [7]?
**A.** 19 µM

**Q.** What about the GI50 ([7]; LP9) of the same molecule?
**A.** 9.2 µM

**Q.** What about the TGI ([7]; LP9) of the same molecule?
**A.** 13.5 µM

**Q.** And the “cellular reducing capacity relative to control cells” value [8]?
**A.** ~100%

**Q.** What about the CC50 [9] of the same molecule?
**A.** 7.2 ± 1.4 µM

**Q.** And the GI50 ([9]; H1975, each drug alone, 48 h)?
**A.** 3.2 ± 1.1 µM

**Q.** What about the IC50 ([9]; H1975, each drug alone, 48 h) of the same molecule?
**A.** 3.5 ± 0.9 µM

**Q.** What about the LC99 ([9]; H1975, each drug alone, 48 h) of the same molecule?
**A.** 8.9 ± 1.6 µM

**Q.** And the TGI ([9]; H1975, each drug alone, 48 h)?
**A.** 5.5 ± 1.4 µM

**Q.** Which results are given for `COCCOCCOCCOCCOCCOCCSSCCNCCCN` [1LP65, m-PEG6-S-S-WR1065]?
**A.** GI50 [10]: 22.9 µM; CC50 [11]: 129 ± 3.4 µM
